In the Kinase Knowledgebase extract (Sharma et al. 2016):

Columns and labels:
[1] = target: MAPK14 (human) (UniProt Q16539); assay: Sodium butyrate-induced Hemoglobinization (K562 Cells); conditions: concentration not given here
[2] = target: MAPK14 (human) (UniProt Q16539); assay: Hydroxyurea-induced Hemoglobinization (K562 Cells); conditions: concentration not given here

MAPK14 (human), sequence (Q16539 whole entry, looked up): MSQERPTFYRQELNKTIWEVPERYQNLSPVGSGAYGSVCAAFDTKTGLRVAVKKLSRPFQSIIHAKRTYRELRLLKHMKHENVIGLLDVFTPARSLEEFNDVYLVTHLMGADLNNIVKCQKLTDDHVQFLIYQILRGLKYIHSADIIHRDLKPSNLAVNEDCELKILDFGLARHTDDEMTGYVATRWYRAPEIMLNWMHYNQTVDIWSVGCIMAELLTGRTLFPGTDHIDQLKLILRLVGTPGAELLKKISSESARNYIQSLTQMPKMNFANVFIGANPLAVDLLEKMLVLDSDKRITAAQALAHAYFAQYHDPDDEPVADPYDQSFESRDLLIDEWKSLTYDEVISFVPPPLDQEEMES

| cell count [1] | cell count [2] | SMILES |
| --- | --- | --- |
| 39.8% |  | CCCC(=O)[O-].[Na+] |
|  | 54% | COc1cccc(-c2cc(=O)c3ccccc3o2)c1N.NC(=O)NO |
|  | 32.4% | COc1cccc(-c2cc(=O)c3ccccc3o2)c1N |
